Assay results reported in ChEMBL document CHEMBL3046482, “Facile synthesis of furoquinoline and effects on radical-induced oxidation of DNA” (Med Chem Res, 2013).
Calls of active or inactive are those of the source. The calls are words filed in the database; no cut-off is given here.

How the values were obtained:
Assay type in all cases: functional
[1] = Antioxidant activity assessed as decrease in AAPH-induced oxidation of DNA measured TBARS production at 100 to 400 uM after 15 min by spectrophotometric analysis
[2] = Antioxidant activity assessed as decrease in hydroxyl radical-induced oxidation of DNA measured TBARS production at 400 uM after 30 min by spectrophotometric analysis relative to control; parameters: scale not given: the % may be the effect or the level left
[3] = Antioxidant activity assessed as decrease in Cu2+/GSH-induced oxidation of DNA measured TBARS production at 400 uM after 90 min by spectrophotometric analysis relative to control; parameters: scale not given: the % may be the effect or the level left
[4] = Antioxidant activity assessed as decrease in AAPH-induced oxidation of DNA measured TBARS production at 400 uM after 15 min by spectrophotometric analysis

| SMILES | Activity [1] | Activity [2] [%] | Activity [3] [%] | Activity [4] |
| --- | --- | --- | --- | --- |
| Cc1c2c(nc3cc(O)ccc13)OCC2 | Active | 95.1 | 93.5 |  |
| Cc1c2c(nc3ccccc13)OCC2 |  | 95.1 | 96.6 | inactive |
| Cc1c2c(nc3ccc(O)cc13)OCC2 |  | 88.4 | 92.9 |  |
| Cc1c2c(nc3c(O)cccc13)OCC2 |  | 90.8 | 92.2 |  |
